The source of these data is patent US9351955B2, “Compounds and pharmaceutical compositions thereof for the treatment of cystic fibrosis” (Galapagos NV, priority 2013, dated 2016).

One test has as its target T1, CFTR ΔF508 mutant (Homo sapiens, UniProt P13569, DEL508-508).
T1 construct: expressed in transfected cells; host or cells: CFBE41o- (adenoviral transduction)
Briefly: YFP-halide influx assay for the CFTR-ΔF508 mutation (384 well, CFBE41o- cells, FDSS/μCell). Type of test: cell-based. Particulars: forskolin 10.67 μM, fluorescence after 36 seconds, read-out: EC50 measured by YFP-halide influx assay for the CFTR-ΔF508. From the text:
6.2. YFP-Halide Influx Assay for the CFTR-ΔF508 Mutation
The YFP halide influx assay measures the functionality of the cystic fibrosis Transmembrane Conductance regulator (CFTR) channels in the cystic fibrosis bronchial epithelium cell line CFBE41o-. The assay is used to evaluate the capacity of compounds to increase the open probability of existing CFTR channels in the membrane. It makes use of the observation that the yellow fluorescent protein (YFP) variant YFP H148Q, I152L has its fluorescence substantially quenched by halide ions like Cl— and I— (Galietta et al., 2001; Nagai et al., 2002).
For this purpose, CFBE410-cells are seeded in 384 well plates (3000 CFBE cells/well). One day after seeding, the CFBE cells are transduced with adenoviral vectors that direct the expression of the CFTR ΔF508 mutant and of the YFP reporter. Cells are incubated at 27° C., 5% CO2 for 24 hours so as to allow for the proper folding and migration to the membrane of the CFTR channel or treated with a CFTR modulator during 24 h at 37° C.
The I— induced quenching of fluorescence is recorded […] immediately after injection of I— for 2 min on an FDSS/μCell (Hamamatsu). The capacity of a compound to increase the channel opening is directly correlated with the decrease in fluorescence, and is expressed as (1−(fluorescence after 36 seconds (F)/fluorescence before injection (F0))) and an EC50 can be derived from a (1−F/F0) vs compound concentration plot.

The target in a further test is T2, CFTR G551D mutant (Homo sapiens, UniProt P13569, G551D).
T2 construct: expressed in transfected cells; host or cells: HEK293 (reverse transfection with plasmids)
Briefly: YFP-halide influx assay for the CFTR-G551D mutation (HEK293 cells). The conditions noted are these: HEK293 cells expressing CFTR G551D and YFP reporter; forskolin 10.67 μM; read-out: EC50 measured by YFP-halide influx assay for the CFTR-G551D. Type of test: cell-based. An excerpt: 6.3. YFP-Halide Influx Assay for the CFTR-G551D Mutation
The YFP halide influx assay measures the functionality of the cystic fibrosis Transmembrane Conductance regulator (CFTR) channels. The assay is used to evaluate the capacity of compounds to increase the channel opening of existing mutant CFTR channels in the membrane. It makes use of the observation that the yellow fluorescent protein (YFP) variant YFP H148Q, I152L, F47L has its fluorescence substantially quenched by halide ions like Cl^− and I^−. (Galietta et al., 2001)
For this purpose, HEK293-cells are seeded in 96 well plates. During seeding, the cells are reverse-transfected with plasmid vectors that direct the expression of the CFTR G551D mutant and of the YFP reporter. Cells are incubated at 37° C., 5% CO2 for 24 hours so as to allow for sufficient expression of the CFTR protein.
The I^−-induced quenching of fluorescence is recorded immediately after injection of I^− for 7 seconds. The capacity of a compound to increase the channel opening is directly correlated with the decrease in fluorescence, and is expressed as (1−(fluorescence after 7 seconds (F)/fluorescence before injection (F0))) and an EC50 can be derived from a (1−F/F0) vs compound concentration plot.

T2 sequence (P13569 whole entry G551D): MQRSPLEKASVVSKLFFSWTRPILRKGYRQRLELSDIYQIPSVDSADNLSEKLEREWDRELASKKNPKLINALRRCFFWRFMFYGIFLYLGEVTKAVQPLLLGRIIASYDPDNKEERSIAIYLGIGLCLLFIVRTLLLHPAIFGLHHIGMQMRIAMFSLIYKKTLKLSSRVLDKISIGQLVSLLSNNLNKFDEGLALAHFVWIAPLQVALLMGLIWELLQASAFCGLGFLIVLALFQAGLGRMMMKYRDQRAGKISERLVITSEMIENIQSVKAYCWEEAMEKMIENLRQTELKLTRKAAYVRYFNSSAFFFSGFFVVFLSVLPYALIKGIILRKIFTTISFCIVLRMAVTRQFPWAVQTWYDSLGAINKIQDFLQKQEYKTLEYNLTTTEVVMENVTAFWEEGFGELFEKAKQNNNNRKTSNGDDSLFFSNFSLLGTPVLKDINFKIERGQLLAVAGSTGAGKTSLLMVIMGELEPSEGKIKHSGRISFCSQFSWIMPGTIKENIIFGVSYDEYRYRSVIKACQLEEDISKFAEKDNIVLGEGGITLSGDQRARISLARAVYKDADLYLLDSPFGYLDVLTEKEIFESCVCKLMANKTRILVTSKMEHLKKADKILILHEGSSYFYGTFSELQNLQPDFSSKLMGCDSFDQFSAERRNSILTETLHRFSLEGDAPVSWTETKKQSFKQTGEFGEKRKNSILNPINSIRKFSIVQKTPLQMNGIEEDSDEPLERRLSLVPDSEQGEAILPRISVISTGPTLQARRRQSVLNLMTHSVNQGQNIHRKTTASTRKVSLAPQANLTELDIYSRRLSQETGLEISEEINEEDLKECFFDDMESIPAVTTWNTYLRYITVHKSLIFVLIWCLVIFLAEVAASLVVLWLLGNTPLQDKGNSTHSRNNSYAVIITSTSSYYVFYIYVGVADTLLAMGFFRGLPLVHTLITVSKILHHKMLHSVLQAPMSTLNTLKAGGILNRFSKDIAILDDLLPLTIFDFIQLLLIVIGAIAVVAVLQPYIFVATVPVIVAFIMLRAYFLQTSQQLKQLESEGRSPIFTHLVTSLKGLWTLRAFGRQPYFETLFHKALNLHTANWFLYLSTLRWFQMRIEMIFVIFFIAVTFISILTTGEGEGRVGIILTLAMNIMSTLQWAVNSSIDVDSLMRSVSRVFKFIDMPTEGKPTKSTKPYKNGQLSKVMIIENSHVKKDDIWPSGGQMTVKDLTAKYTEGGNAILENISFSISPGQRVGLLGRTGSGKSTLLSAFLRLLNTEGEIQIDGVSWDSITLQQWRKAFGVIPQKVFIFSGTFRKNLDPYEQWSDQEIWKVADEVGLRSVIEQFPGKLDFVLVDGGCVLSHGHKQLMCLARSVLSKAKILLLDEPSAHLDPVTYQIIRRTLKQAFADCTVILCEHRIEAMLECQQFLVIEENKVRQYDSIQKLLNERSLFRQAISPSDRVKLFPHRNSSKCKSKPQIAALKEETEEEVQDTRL
T1 sequence (P13569 with tags, fused parts or gaps DEL508-508): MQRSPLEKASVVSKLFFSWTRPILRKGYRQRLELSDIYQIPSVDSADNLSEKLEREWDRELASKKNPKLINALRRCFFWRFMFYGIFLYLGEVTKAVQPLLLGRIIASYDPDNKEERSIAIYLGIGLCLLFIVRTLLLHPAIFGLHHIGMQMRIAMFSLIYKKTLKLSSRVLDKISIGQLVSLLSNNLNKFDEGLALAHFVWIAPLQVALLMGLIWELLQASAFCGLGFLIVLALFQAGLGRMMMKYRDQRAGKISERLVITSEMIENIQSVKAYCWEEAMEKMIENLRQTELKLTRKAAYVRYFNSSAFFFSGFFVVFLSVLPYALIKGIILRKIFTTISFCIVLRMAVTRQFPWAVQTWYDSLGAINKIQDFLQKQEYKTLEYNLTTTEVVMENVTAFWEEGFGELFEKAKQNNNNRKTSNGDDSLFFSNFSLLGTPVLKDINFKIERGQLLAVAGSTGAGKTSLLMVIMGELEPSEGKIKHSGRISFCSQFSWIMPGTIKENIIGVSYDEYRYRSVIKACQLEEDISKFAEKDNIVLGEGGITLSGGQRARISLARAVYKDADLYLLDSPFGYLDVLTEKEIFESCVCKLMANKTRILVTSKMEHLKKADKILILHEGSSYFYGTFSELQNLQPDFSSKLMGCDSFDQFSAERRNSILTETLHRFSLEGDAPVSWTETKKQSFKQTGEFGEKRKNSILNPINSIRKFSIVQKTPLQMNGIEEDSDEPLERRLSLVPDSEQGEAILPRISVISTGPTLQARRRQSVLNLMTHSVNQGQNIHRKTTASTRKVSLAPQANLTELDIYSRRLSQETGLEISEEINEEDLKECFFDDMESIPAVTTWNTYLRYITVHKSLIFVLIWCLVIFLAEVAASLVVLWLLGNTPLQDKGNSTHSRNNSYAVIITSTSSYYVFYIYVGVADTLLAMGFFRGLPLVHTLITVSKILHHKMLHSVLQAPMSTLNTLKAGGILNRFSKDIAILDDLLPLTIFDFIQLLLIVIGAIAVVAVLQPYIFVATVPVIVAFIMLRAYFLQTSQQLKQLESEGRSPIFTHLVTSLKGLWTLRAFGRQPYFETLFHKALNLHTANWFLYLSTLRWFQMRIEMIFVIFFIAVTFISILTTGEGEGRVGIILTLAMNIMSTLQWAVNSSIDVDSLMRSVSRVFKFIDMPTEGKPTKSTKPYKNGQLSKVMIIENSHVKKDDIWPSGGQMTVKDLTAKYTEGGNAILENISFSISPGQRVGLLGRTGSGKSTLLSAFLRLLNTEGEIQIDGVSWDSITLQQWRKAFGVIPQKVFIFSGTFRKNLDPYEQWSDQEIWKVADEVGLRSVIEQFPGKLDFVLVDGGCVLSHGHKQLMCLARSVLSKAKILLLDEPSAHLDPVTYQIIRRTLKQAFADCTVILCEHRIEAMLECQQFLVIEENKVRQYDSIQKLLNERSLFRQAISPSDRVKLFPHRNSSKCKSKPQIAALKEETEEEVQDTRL

Usually EC50 stands for the concentration giving half of the maximal effect. Take `CC1(C)Cc2c(sc(NC(=O)C(CO)CC3CC3)c2C(N)=O)C(C)(C)O1` (single isomer, unassigned) [Compound 96, 2-[[2-(cyclopropylmethyl)-3-hydroxy-propanoyl]amino]-5,5,7,7-tetramethyl-4H-thieno[2,3-c]pyran-3-carboxamide]: the EC50 on CFTR ΔF508 mutant was determined as 97.4 nM; at CFTR G551D mutant, 3330 nM.
In the same order, the values of `CC(O)C1(C(=O)Nc2sc3c(c2C(N)=O)CC(C)(C)OC3(C)C)CC1` (stereo not shown) [Compound 78, 2-[[1-[1-hydroxyethyl]cyclopropanecarbonyl]amino]-5,5,7,7-tetramethyl-4H-thieno[2,3-c]pyran-3-carboxamide] are 6.39 nM and 3350 nM.
With `CC(CO)C(=O)Nc1sc2c(c1C(N)=O)CC(C)(C)OC2(C)C` (stereo not shown) [Compound 70, 2-[(3-hydroxy-2-methyl-propanoyl)amino]-5,5,7,7-tetramethyl-4H-thieno[2,3-c]pyran-3-carboxamide], the results for the EC50 on CFTR ΔF508 mutant and at CFTR G551D mutant were 176 nM and 3330 nM, respectively.
With `Cn1nccc1C(=O)Nc1sc2c(c1C(N)=O)CC(C)(C)OC2(C)C` [Compound 120, N-(3-carbamoyl-5,5,7,7-tetramethyl-4H-thieno[2,3-c]pyran-2-yl)-2-methyl-pyrazole-3-carboxamide], the EC50 on CFTR ΔF508 mutant worked out at 121 nM; on CFTR G551D mutant it was 2410 nM.
Take `CC1(C)Cc2c(sc(NC(=O)c3cocn3)c2C(N)=O)C(C)(C)O1` [Compound 129, N-(3-carbamoyl-5,5,7,7-tetramethyl-4H-thieno[2,3-c]pyran-2-yl)oxazole-4-carboxamide]: the EC50 at CFTR ΔF508 mutant came to 77.3 nM; on CFTR G551D mutant it was 2290 nM.
In the case of `CC1(C)Cc2c(sc(NC(=O)c3n[nH]cc3C3COCCO3)c2C(N)=O)C(C)(C)O1` (single isomer, unassigned) [Compound 112, N-(3-carbamoyl-5,5,7,7-tetramethyl-4H-thieno[2,3-c]pyran-2-yl)-4-[1,4-dioxan-2-yl]-1H-pyrazole-3-carboxamide], the EC50 on CFTR ΔF508 mutant is 34.4 nM; on CFTR G551D mutant, 1830 nM.
Consider `CC1(C)Cc2c(sc(NC(=O)c3cccc(C(F)F)c3)c2C(N)=O)C(C)(C)O1` [Compound 122, 2-[[3-(difluoromethyl)benzoyl]amino]-5,5,7,7-tetramethyl-4H-thieno[2,3-c]pyran-3-carboxamide], for which the EC50 on CFTR ΔF508 mutant was 41.7 nM; on CFTR G551D mutant, 2380 nM.
The matching figures for `CC1(C)Cc2c(sc(NC(=O)C(CO)C(C)(C)C)c2C(N)=O)C(C)(C)O1` (stereo not shown) [Compound 90, 2-[[2-(hydroxymethyl)-3,3-dimethyl-butanoyl]amino]-5,5,7,7-tetramethyl-4H-thieno[2,3-c]pyran-3-carboxamide]: 120 nM and 3200 nM.
In the case of `CC1(C)Cc2c(sc(NC(=O)[C@]3(CO)CC3(C)C)c2C(N)=O)C(C)(C)O1` [Compound 99, 2-[[(1R)-1-(hydroxymethyl)-2,2-dimethyl-cyclopropanecarbonyl]amino]-5,5,7,7-tetramethyl-4H-thieno[2,3-c]pyran-3-carboxamide], the EC50 turned out to be 28.3 nM at CFTR ΔF508 mutant and 1340 nM at CFTR G551D mutant.
In the same order, the values of `CC1(C)Cc2c(sc(NC(=O)C(CO)C(C)(C)C)c2C(N)=O)C(C)(C)O1` (stereo not shown) [Compound 85, 2-[[2-(hydroxymethyl)-3,3-dimethyl-butanoyl]amino]-5,5,7,7-tetramethyl-4H-thieno[2,3-c]pyran-3-carboxamide] are 93.5 nM and 3330 nM.
Take `CC1(C)Cc2c(sc(NC(=O)C(CO)CC3CC3)c2C(N)=O)C(C)(C)O1` (single isomer, unassigned) [Compound 97, 2-[[2-(cyclopropylmethyl)-3-hydroxy-propanoyl]amino]-5,5,7,7-tetramethyl-4H-thieno[2,3-c]pyran-3-carboxamide]: the EC50 amounted to 113 nM at CFTR ΔF508 mutant and 2780 nM at CFTR G551D mutant.
`Cn1ccc(C(=O)Nc2sc3c(c2C(N)=O)CC(C)(C)OC3(C)C)n1` [Compound 119, N-(3-carbamoyl-5,5,7,7-tetramethyl-4H-thieno[2,3-c]pyran-2-yl)-1-methyl-pyrazole-3-carboxamide]: the EC50 at CFTR ΔF508 mutant was determined as 159 nM; at CFTR G551D mutant, 2170 nM.
With `CC1(C)Cc2c(sc(NC(=O)[C@](C)(O)C(F)(F)F)c2C(N)=O)C(C)(C)O1` [Compound 152, 5,5,7,7-tetramethyl-2-[[(2S)-3,3,3-trifluoro-2-hydroxy-2-methyl-propanoyl]amino]-4H-thieno[2,3-c]pyran-3-carboxamide], the EC50 at CFTR ΔF508 mutant is 12 nM; at CFTR G551D mutant, 2160 nM.
Regarding `CC1(C)Cc2c(sc(NC(=O)c3cn[nH]c3)c2C(N)=O)C(C)(C)O1` [Compound 49, N-(3-carbamoyl-5,5,7,7-tetramethyl-4H-thieno[2,3-c]pyran-2-yl)-1H-pyrazole-4-carboxamide], the EC50 amounted to 125 nM on CFTR ΔF508 mutant and 5670 nM at CFTR G551D mutant.
In the case of `COCCCc1c[nH]nc1C(=O)Nc1sc2c(c1C(N)=O)CC(C)(C)OC2(C)C` [Compound 65, N-(3-carbamoyl-5,5,7,7-tetramethyl-4H-thieno[2,3-c]pyran-2-yl)-4-(3-methoxypropyl)-1H-pyrazole-3-carboxamide], the EC50 on CFTR ΔF508 mutant stood at 27 nM; at CFTR G551D mutant it was 1560 nM.
The matching figures for `CC(O)C1(C(=O)Nc2sc3c(c2C(N)=O)CC(C)(C)OC3(C)C)CC1` (stereo not shown) [Compound 79, 2-[[1-[1-hydroxyethyl]cyclopropanecarbonyl]amino]-5,5,7,7-tetramethyl-4H-thieno[2,3-c]pyran-3-carboxamide]: 23.6 nM and 3330 nM.
Regarding `CC1(C)Cc2c(sc(NC(=O)c3ccn(C(F)F)n3)c2C(N)=O)C(C)(C)O1` [Compound 114, N-(3-carbamoyl-5,5,7,7-tetramethyl-4H-thieno[2,3-c]pyran-2-yl)-1-(difluoromethyl)pyrazole-3-carboxamide], the EC50 is 40.9 nM on CFTR ΔF508 mutant and 1710 nM on CFTR G551D mutant.
Regarding `CC(O)c1cc(C(=O)Nc2sc3c(c2C(N)=O)CC(C)(C)OC3(C)C)n[nH]1` (stereo not shown) [Compound 61, 5-(1-Hydroxy-ethyl)-1H-pyrazole-3-carboxylic acid (3-carbamoyl-5,5,7,7-tetramethyl-4,7-dihydro-5H-thieno[2,3-c]pyran-2-yl)-amide], the EC50 on CFTR ΔF508 mutant came out at 188 nM; at CFTR G551D mutant, 4160 nM.
As for `CC1(C)Cc2c(sc(NC(=O)c3ccn(COP(=O)(O)O)n3)c2C(N)=O)C(C)(C)O1` [Compound 93, [3-[(3-carbamoyl-5,5,7,7-tetramethyl-4H-thieno[2,3-c]pyran-2-yl)carbamoyl]pyrazol-1-yl]methyl dihydrogen phosphate], the figures for the EC50 at CFTR ΔF508 mutant and on CFTR G551D mutant were 479 nM and 3330 nM, respectively.
Regarding `CC1(C)Cc2c(sc(NC(=O)c3ccn(CC(F)F)n3)c2C(N)=O)C(C)(C)O1` [Compound 126, N-(3-carbamoyl-5,5,7,7-tetramethyl-4H-thieno[2,3-c]pyran-2-yl)-1-(2,2-difluoroethyl)pyrazole-3-carboxamide], the EC50 on CFTR ΔF508 mutant stood at 555 nM; on CFTR G551D mutant, 3330 nM.
Consider `CCOC(=O)C1CC1C(=O)Nc1sc2c(c1C(N)=O)CC(C)(C)OC2(C)C` (stereo not shown) [Compound 62, 2-(3-Carbamoyl-5,5,7,7-tetramethyl-4,7-dihydro-5H-thieno[2,3-c]pyran-2-ylcarbamoyl)-cyclopropanecarboxylic acid ethyl ester], for which the figures for the EC50 at CFTR ΔF508 mutant and at CFTR G551D mutant were 301 nM and 3330 nM, respectively.
Take `CC(C)C(O)C(=O)Nc1sc2c(c1C(N)=O)CC(C)(C)OC2(C)C` (single isomer, unassigned) [Compound 51, 2-[[2-hydroxy-3-methyl-butanoyl]amino]-5,5,7,7-tetramethyl-4H-thieno[2,3-c]pyran-3-carboxamide]: the EC50 came to 92.5 nM on CFTR ΔF508 mutant and 5550 nM on CFTR G551D mutant.
Regarding `CC1(C)Cc2c(sc(NC(=O)c3nn(C(F)F)cc3Cl)c2C(N)=O)C(C)(C)O1` [Compound 116, N-(3-carbamoyl-5,5,7,7-tetramethyl-4H-thieno[2,3-c]pyran-2-yl)-4-chloro-1-(difluoromethyl)pyrazole-3-carboxamide], the EC50 on CFTR ΔF508 mutant stood at 88 nM; on CFTR G551D mutant it was 1520 nM.
